Here are results for 19 compounds from paper PMC11151825 (RSC Chemical Biology, 2024).

Where two headings read alike, the source gives them in different places. Square brackets hold non-standard residues; d marks the D form. Peptide text beside a SMILES is read from it. Abu = CC[C@H](N)C(=O)O

For data set [1] the following is noted: the molecule shown is the open-chain precursor.
The conditions of data set [2]: the molecule shown is the open-chain precursor. This is another data set of the same source.
The conditions of data set [3]: the molecule shown is the open-chain precursor, 3 steps.
The target in data set [4] is human C5aR1 (Homo sapiens, UniProt P21730). Briefly: cell-based. As to conditions: SEM.
Sequence of human C5aR1 (P21730 whole entry): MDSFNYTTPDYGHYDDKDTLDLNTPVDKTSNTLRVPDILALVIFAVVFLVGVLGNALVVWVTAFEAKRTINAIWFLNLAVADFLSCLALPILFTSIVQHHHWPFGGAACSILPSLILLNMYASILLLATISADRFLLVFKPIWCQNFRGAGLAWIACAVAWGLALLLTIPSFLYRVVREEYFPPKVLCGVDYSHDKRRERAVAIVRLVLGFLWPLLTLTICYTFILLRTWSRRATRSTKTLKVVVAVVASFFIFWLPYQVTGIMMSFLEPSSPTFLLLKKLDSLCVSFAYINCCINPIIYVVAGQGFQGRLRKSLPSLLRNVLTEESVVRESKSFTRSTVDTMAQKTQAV

Turning to “H-GCTCSWPVCTRNGLPVCGQTCVGGTCN-OH (6 free Cys)”, the ring closure, conversion by HPLC (% (HPLC peak area)) in data set [1] turned out to be 2.6; in data set [2], 9.5.
`CC[C@H](C)[C@H](NC(=O)[C@H](CCCNC(=N)N)NC(=O)[C@H](CCCNC(=N)N)NC(=O)[C@H](CC(C)C)NC(=O)[C@H](Cc1ccccc1)NC(=O)CNC(=O)CNC(=O)[C@@H](N)Cc1ccc(O)cc1)C(=O)N[C@@H](CCCNC(=N)N)C(=O)N1CCC[C@H]1C(=O)N[C@@H](CCCCNC(CC(C)C)=C1C(=O)CC(C)(C)CC1=O)C(=O)N[C@@H](CC(C)C)C(=O)N[C@@H](CCCCNC(CC(C)C)=C1C(=O)CC(C)(C)CC1=O)C(=O)NCC(=O)N[C@H]1CSSC[C@@H]2NC(=O)[C@H](C(C)C)NC(=O)[C@@H]3CCCN3C(=O)[C@H](CC(C)C)NC(=O)CNC(=O)[C@H](CC(N)=O)NC(=O)[C@H](CCCNC(=N)N)NC(=O)[C@H]([C@@H](C)O)NC(=O)[C@@H]3CSSC[C@@H](C(=O)N[C@@H](CC(N)=O)C(=O)O)NC(=O)[C@H]([C@@H](C)O)NC(=O)CNC(=O)CNC(=O)[C@H](C(C)C)NC(=O)[C@H](CSSC[C@H](NC(=O)[C@H]([C@@H](C)O)NC1=O)C(=O)N[C@@H](CO)C(=O)N[C@@H](Cc1c[nH]c4ccccc14)C(=O)N1CCC[C@H]1C(=O)N[C@@H](C(C)C)C(=O)N3)NC(=O)[C@H]([C@@H](C)O)NC(=O)[C@H](CCC(N)=O)NC(=O)CNC2=O` showed a ring closure, yield over several steps in data set [3] (120-membered ring) of 11.2%.
For “cyclo-(CGQTCVGGTCNTPGCTCSWPVCTRNGLPV) (6 free Cys)”, the ring closure, conversion by HPLC (% (HPLC peak area)) in data set [1] was determined as 23.5; in data set [2], 26.1.
In data set [3] (87-membered ring), “H-RNGLPVCGQTCVGGTCNTPGCTCSWPVCT-OH (disulfides I-IV, II-V, III-VI)” had a ring closure, yield over several steps of 24.8%.
For “H-RNGLPVCGETCVGGTCNTPGCTCSWPVCT-OH (disulfides I-IV, II-V, III-VI)”, the ring closure, yield over several steps in data set [3] (87-membered ring) is 10.6%.
“H-VCTRNGLPVCGQTCVGGTCNTPGCTCS-OH (6 free Cys)”: the ring closure, conversion by HPLC (% (HPLC peak area)) in data set [1] is 27; in data set [2] it was 30.5.
“H-GCYFQNCPRGVCGQTCVGGTCNTPGCTCSWPVCT-OH (epitope Cys2-Cys7 disulfide; scaffold I-IV, II-V, III-VI)” had a ring closure, yield over several steps in data set [3] (102-membered ring) of 1.7%.
As to “H-VCGATCVGGTCNTPGCTCSWPVCT-OH (6 free Cys)”, the ring closure, conversion by HPLC (% (HPLC peak area)) in data set [1] was 3.8; in data set [2] it was 4.6.
`CC[C@H](NC(=O)[C@H](C)NC(=O)[C@H](CC(C)C)NC(=O)[C@@H]1CCCN1C(=O)[C@H](CCCCN)NC(=O)[C@@H](N)Cc1ccccc1)C(=O)N[C@H](C)C(=O)N[C@@H](CCCNC(=N)N)C(=O)O` [BM221] (H-FKPLA[Abu][dA]R-OH): in data set [4], the response was half-maximal at 2.8 ± 0.9 nM (EC50).
In data set [3] (96-membered ring), `CC[C@H](NC(=O)[C@H](C)NC(=O)[C@H](CC(C)C)NC(=O)[C@@H]1CCCN1C(=O)[C@H](CCCCNC(CC(C)C)=C1C(=O)CC(C)(C)CC1=O)NC(=O)[C@@H](N)Cc1ccccc1)C(=O)N[C@H](C)C(=O)N[C@@H](CCCNC(=N)N)C(=O)N[C@H](C(=O)N[C@H]1CSSC[C@@H]2NC(=O)CNC(=O)[C@@H]3CCCN3C(=O)[C@H]([C@@H](C)O)NC(=O)[C@H](CC(N)=O)NC(=O)[C@@H]3CSSC[C@@H](C(=O)N[C@H](C(=O)O)[C@@H](C)O)NC(=O)[C@H](C(C)C)NC(=O)[C@@H]4CCCN4C(=O)[C@H](Cc4c[nH]c5ccccc45)NC(=O)[C@H](CO)NC(=O)[C@H](CSSC[C@H](NC(=O)[C@H]([C@@H](C)O)NC(=O)[C@H](CCC(N)=O)NC(=O)CNC1=O)C(=O)N[C@@H](C(C)C)C(=O)NCC(=O)NCC(=O)N[C@@H]([C@@H](C)O)C(=O)N3)NC(=O)[C@H]([C@@H](C)O)NC2=O)C(C)C` displayed a ring closure, yield over several steps of 1.1%.
“H-GCYIQNCPLGVCGQTCVGGTCNTPGCTCSWPVCT-OH (epitope Cys2-Cys7 disulfide; scaffold I-IV, II-V, III-VI)” yielded a ring closure, yield over several steps in data set [3] (102-membered ring) of 10.9%.
In data set [3] (105-membered ring), `CC[C@H](C)[C@@H]1NC(=O)[C@@H]2CCCN2C(=O)[C@@H]2CCCN2C(=O)[C@H]([C@@H](C)CC)NC(=O)[C@H](CO)NC(=O)[C@H](CCCCNC(CC(C)C)=C2C(=O)CC(C)(C)CC2=O)NC(=O)[C@H]([C@@H](C)O)NC(=O)[C@@H](NC(=O)CN)CSSC[C@@H](C(=O)NCC(=O)N[C@H](C(=O)N[C@H]2CSSC[C@@H]3NC(=O)CNC(=O)[C@@H]4CCCN4C(=O)[C@H]([C@@H](C)O)NC(=O)[C@H](CC(N)=O)NC(=O)[C@@H]4CSSC[C@@H](C(=O)N[C@H](C(=O)O)[C@@H](C)O)NC(=O)[C@H](C(C)C)NC(=O)[C@@H]5CCCN5C(=O)[C@H](Cc5c[nH]c6ccccc56)NC(=O)[C@H](CO)NC(=O)[C@H](CSSC[C@H](NC(=O)[C@H]([C@@H](C)O)NC(=O)[C@H](CCC(N)=O)NC(=O)CNC2=O)C(=O)N[C@@H](C(C)C)C(=O)NCC(=O)NCC(=O)N[C@@H]([C@@H](C)O)C(=O)N4)NC(=O)[C@H]([C@@H](C)O)NC3=O)C(C)C)NC1=O` had a ring closure, yield over several steps of 18.7%.
Turning to “H-TCNTPGCTCSWPVCTRNGLPVCGQTCV-OH (6 free Cys)”, the ring closure, conversion by HPLC (% (HPLC peak area)) in data set [1] came out at 3.7; in data set [2], 8.1.
As to “H-VCGQTCVGGTCNTPGCTCSWPVCT-OH (6 free Cys)”, the ring closure, conversion by HPLC (% (HPLC peak area)) in data set [1] came to 9.4; in data set [2], 16.1.
`CC(C)CC(NCCCC[C@H](NC(=O)[C@@H](N)Cc1ccccc1)C(=O)N1CCC[C@H]1C(=O)N[C@@H](CC(C)C)C(=O)N[C@@H](C)C(=O)N[C@@H](C)C(=O)N[C@H](C)C(=O)N[C@@H](CCCNC(=N)N)C(=O)N[C@H](C(=O)N[C@H]1CSSC[C@@H]2NC(=O)CNC(=O)[C@@H]3CCCN3C(=O)[C@H]([C@@H](C)O)NC(=O)[C@H](CC(N)=O)NC(=O)[C@@H]3CSSC[C@@H](C(=O)N[C@H](C(=O)O)[C@@H](C)O)NC(=O)[C@H](C(C)C)NC(=O)[C@@H]4CCCN4C(=O)[C@H](Cc4c[nH]c5ccccc45)NC(=O)[C@H](CO)NC(=O)[C@H](CSSC[C@H](NC(=O)[C@H]([C@@H](C)O)NC(=O)[C@H](CCC(N)=O)NC(=O)CNC1=O)C(=O)N[C@@H](C(C)C)C(=O)NCC(=O)NCC(=O)N[C@@H]([C@@H](C)O)C(=O)N3)NC(=O)[C@H]([C@@H](C)O)NC2=O)C(C)C)=C1C(=O)CC(C)(C)CC1=O` displayed a ring closure, yield over several steps in data set [3] (96-membered ring) of 22%.
In the case of `CC(C)CC(NCCCC[C@@H]1NC(=O)[C@@H](Cc2c[nH]c3ccccc23)NC(=O)[C@H](Cc2ccccc2)NC(=O)[C@@H](NC(=O)[C@H](N)Cc2ccccc2)CSSC[C@@H](C(=O)N[C@H](C(=O)N[C@H](C(=O)N[C@H]2CSSC[C@@H]3NC(=O)CNC(=O)[C@@H]4CCCN4C(=O)[C@H]([C@@H](C)O)NC(=O)[C@H](CC(N)=O)NC(=O)[C@@H]4CSSC[C@@H](C(=O)N[C@H](C(=O)O)[C@@H](C)O)NC(=O)[C@H](C(C)C)NC(=O)[C@@H]5CCCN5C(=O)[C@H](Cc5c[nH]c6ccccc56)NC(=O)[C@H](CO)NC(=O)[C@H](CSSC[C@H](NC(=O)[C@H]([C@@H](C)O)NC(=O)[C@H](CCC(N)=O)NC(=O)CNC2=O)C(=O)N[C@@H](C(C)C)C(=O)NCC(=O)NCC(=O)N[C@@H]([C@@H](C)O)C(=O)N4)NC(=O)[C@H]([C@@H](C)O)NC3=O)C(C)C)[C@@H](C)O)NC(=O)[C@H]([C@@H](C)O)NC1=O)=C1C(=O)CC(C)(C)CC1=O`, the ring closure, yield over several steps in data set [3] (96-membered ring) was determined as 16.1%.
In the case of “H-VCGETCVGGTCNTPGCTCSWPVCT-OH (6 free Cys)”, the ring closure, conversion by HPLC (% (HPLC peak area)) was 15.4 in data set [1] and 23.4 in data set [2].
Turning to `CC[C@H](C)[C@H](NC(=O)[C@H](CCCNC(=N)N)NC(=O)[C@H](CCCNC(=N)N)NC(=O)[C@H](CC(C)C)NC(=O)[C@H](Cc1ccccc1)NC(=O)CNC(=O)CNC(=O)[C@@H](N)Cc1ccc(O)cc1)C(=O)N[C@@H](CCCNC(=N)N)C(=O)N1CCC[C@H]1C(=O)N[C@@H](CCCCNC(CC(C)C)=C1C(=O)CC(C)(C)CC1=O)C(=O)N[C@@H](CC(C)C)C(=O)N[C@@H](CCCCNC(CC(C)C)=C1C(=O)CC(C)(C)CC1=O)C(=O)N[C@H](C(=O)N[C@H]1CSSC[C@@H]2NC(=O)[C@H]([C@@H](C)O)NC(=O)CNC(=O)CNC(=O)[C@H](C(C)C)NC(=O)[C@@H]3CSSC[C@@H](C(=O)N[C@@H](CO)C(=O)O)NC(=O)[C@H]([C@@H](C)O)NC(=O)[C@H](CSSC[C@H](NC(=O)[C@H](C(C)C)NC(=O)[C@@H]4CCCN4C(=O)[C@H](CC(C)C)NC(=O)CNC(=O)[C@H](CC(N)=O)NC(=O)[C@H](CCCNC(=N)N)NC(=O)[C@H]([C@@H](C)O)NC1=O)C(=O)NCC(=O)N[C@@H](CCC(N)=O)C(=O)N[C@@H]([C@@H](C)O)C(=O)N3)NC(=O)CNC(=O)[C@@H]1CCCN1C(=O)[C@H]([C@@H](C)O)NC(=O)[C@H](CC(N)=O)NC2=O)C(C)C`, in data set [3] (120-membered ring), the ring closure, yield over several steps was determined as 7.1%.
In the case of `CC[C@H](C)[C@H](NC(=O)[C@H](CCCNC(=N)N)NC(=O)[C@H](CCCNC(=N)N)NC(=O)[C@H](CC(C)C)NC(=O)[C@H](Cc1ccccc1)NC(=O)CNC(=O)CNC(=O)[C@@H](N)Cc1ccc(O)cc1)C(=O)N[C@@H](CCCNC(=N)N)C(=O)N1CCC[C@H]1C(=O)N[C@@H](CCCCNC(CC(C)C)=C1C(=O)CC(C)(C)CC1=O)C(=O)N[C@@H](CC(C)C)C(=O)N[C@@H](CCCCNC(CC(C)C)=C1C(=O)CC(C)(C)CC1=O)C(=O)N[C@H](C(=O)N[C@H]1CSSC[C@@H]2NC(=O)CNC(=O)[C@@H]3CCCN3C(=O)[C@H]([C@@H](C)O)NC(=O)[C@H](CC(N)=O)NC(=O)[C@@H]3CSSC[C@@H](C(=O)N[C@H](C(=O)O)[C@@H](C)O)NC(=O)[C@H](C(C)C)NC(=O)[C@@H]4CCCN4C(=O)[C@H](Cc4c[nH]c5ccccc45)NC(=O)[C@H](CO)NC(=O)[C@H](CSSC[C@H](NC(=O)[C@H]([C@@H](C)O)NC(=O)[C@H](CCC(N)=O)NC(=O)CNC1=O)C(=O)N[C@@H](C(C)C)C(=O)NCC(=O)NCC(=O)N[C@@H]([C@@H](C)O)C(=O)N3)NC(=O)[C@H]([C@@H](C)O)NC2=O)C(C)C`, the ring closure, yield over several steps in data set [3] (111-membered ring) worked out at 17.4%.

As usually defined, the EC50 is the concentration at which the effect is half-maximal. A low value points to an effect from little substance.
